Measurements: US7049303B2, “Inhibition of viruses” (Medical Research Council, priority 2001, dated 2006)
Read-outs that look alike come from different tables or passages of the source.

Tests used:
[1] = tested on: human T-lymphocytes (CEM/O cells); assay: Toxicity: inhibition of proliferation of human T-lymphocytes (CEM/O cells); type: cell-based; details: read-out: IC50 (50% inhibitory concentration), proliferation of CEM/O cells
Experimental: Following synthesis, the various compounds were tested in vitro for toxicity, by measuring the IC50 (i.e. the concentration which caused 50% inhibition) in respect of the inhibitory effects of the compounds on the proliferation of human T-lymphocytes (CEM/O cells).

HIV-1(IIIB) = assay: Serial passage of HIV-1 infected CEM cell cultures with sub-toxic drug, cytopathic effect (giant cell formation); type: cell-based; details: for percentage of cytopathic effect (giant cell formation), passage number 1: passage 1; for percentage of cytopathic effect (giant cell formation), passage number 1 / percentage of cytopathic effect (giant cell formation), passage number 2 / percentage of cytopathic effect (giant cell formation), passage number 3 / percentage of cytopathic effect (giant cell formation), passage number 4 / percentage of cytopathic effect (giant cell formation), passage number 5 / percentage of cytopathic effect (giant cell formation), passage number 6 / percentage of cytopathic effect (giant cell formation), passage number 7: subcultivation every 5 days; for percentage of cytopathic effect (giant cell formation), passage number 2: passage 2; for percentage of cytopathic effect (giant cell formation), passage number 3: passage 3; for percentage of cytopathic effect (giant cell formation), passage number 4: passage 4; for percentage of cytopathic effect (giant cell formation), passage number 5: passage 5; for percentage of cytopathic effect (giant cell formation), passage number 6: passage 6; for percentage of cytopathic effect (giant cell formation), passage number 7: passage 7; for antiviral activity (inhibition of HIV replication) in words: HIV-1 infected CEM cells, sub-toxic concentrations, up to 7 passages
Experimental: HIV-1 infected CEM cells were subcultured every 4–5 days in the presence of sub-toxic concentrations (in the range of 10–20% of their respective IC50 value) of the compounds under test. At each sub-culture, cell-free supernatant (10–20 μl) was transferred to fresh 1 ml cell cultures. At regular intervals the cultures were inspected microscopically to assess the extent of any cytopathic effect (giant cell formation). As an alternative, it is also possible to perform an immunoassay to quantify viral p24 production.
The preliminary results for up to 7 passages are shown below in Table 3.

NNc1nc(N)nc2c1ncn2[C@@H]1O[C@H](CO)[C@@H](O)[C@H]1O [JA24, N^6-amino-9-β-D-ribofuranosyl-2,6-diaminopurine]
IC50 [1]: 62 ± 6 µM
percentage of cytopathic effect (giant cell formation), passage number 1 (HIV-1(IIIB); 4 μM): 100%
percentage of cytopathic effect (giant cell formation), passage number 2 (HIV-1(IIIB); 4 μM): 100%
percentage of cytopathic effect (giant cell formation), passage number 3 (HIV-1(IIIB); 4 μM): 19%
percentage of cytopathic effect (giant cell formation), passage number 4 (HIV-1(IIIB); 4 μM): 100%
percentage of cytopathic effect (giant cell formation), passage number 5 (HIV-1(IIIB); 4 μM): 100%
percentage of cytopathic effect (giant cell formation), passage number 6 (HIV-1(IIIB); 4 μM): 100%
percentage of cytopathic effect (giant cell formation), passage number 7 (HIV-1(IIIB); 4 μM): 12%
percentage of cytopathic effect (giant cell formation), passage number 1 (HIV-1(IIIB); 10 μM): 100%
percentage of cytopathic effect (giant cell formation), passage number 2 (HIV-1(IIIB); 10 μM): 100%
percentage of cytopathic effect (giant cell formation), passage number 3 (HIV-1(IIIB); 10 μM): 25%
percentage of cytopathic effect (giant cell formation), passage number 4 (HIV-1(IIIB); 10 μM): 100%
percentage of cytopathic effect (giant cell formation), passage number 5 (HIV-1(IIIB); 10 μM): 100%
percentage of cytopathic effect (giant cell formation), passage number 6 (HIV-1(IIIB); 10 μM): 100%
percentage of cytopathic effect (giant cell formation), passage number 7 (HIV-1(IIIB); 10 μM): 25%

O=C1NC2=NOCCC2=CN1[C@H]1C[C@H](O)[C@@H](CO)O1 [JA21, 6-(2-deoxy-β-D-ribofuranosyl)-3,4-dihydro-8H-pyrimido[4,5-c][1,2] oxazin-7-one, reference compound]
IC50 ([1]; T-lymphocyte): 690 ± 14 µM
percentage of cytopathic effect (giant cell formation), passage number 1 (HIV-1(IIIB); 400 μM): 100%
percentage of cytopathic effect (giant cell formation), passage number 2 (HIV-1(IIIB); 400 μM): 100%
percentage of cytopathic effect (giant cell formation), passage number 3 (HIV-1(IIIB); 400 μM): 25%
percentage of cytopathic effect (giant cell formation), passage number 4 (HIV-1(IIIB); 400 μM): 50%
percentage of cytopathic effect (giant cell formation), passage number 5 (HIV-1(IIIB); 400 μM): 37%
percentage of cytopathic effect (giant cell formation), passage number 6 (HIV-1(IIIB); 400 μM): 12%
percentage of cytopathic effect (giant cell formation), passage number 7 (HIV-1(IIIB); 400 μM): 6%

CNc1nc(N)nc2c1ncn2[C@@H]1O[C@H](CO)[C@@H](O)[C@H]1O [JA23, 2-amino-N^6-methyladenosine]
IC50 ([1]; T-lymphocyte): 622 ± 8 µM
percentage of cytopathic effect (giant cell formation), passage number 1 (HIV-1(IIIB); 400 μM): 100%
percentage of cytopathic effect (giant cell formation), passage number 2 (HIV-1(IIIB); 400 μM): 100%
percentage of cytopathic effect (giant cell formation), passage number 3 (HIV-1(IIIB); 400 μM): 12%
percentage of cytopathic effect (giant cell formation), passage number 4 (HIV-1(IIIB); 400 μM): 25%
percentage of cytopathic effect (giant cell formation), passage number 5 (HIV-1(IIIB); 400 μM): 3%
percentage of cytopathic effect (giant cell formation), passage number 6 (HIV-1(IIIB); 400 μM): 0%
percentage of cytopathic effect (giant cell formation), passage number 7 (HIV-1(IIIB); 400 μM): 0%
antiviral activity (inhibition of HIV replication) in words (HIV-1(IIIB)): moderately effective

CONc1nc(N)nc2c1ncn2[C@@H]1O[C@H](CO)[C@@H](O)[C@H]1O [JA31, 2-amino-6-methoxyamino-9-β-D-ribofuranosylpurine]
IC50 ([1]; T-lymphocyte): 377 ± 62 µM
percentage of cytopathic effect (giant cell formation), passage number 1 (HIV-1(IIIB); 20 μM): 100%
percentage of cytopathic effect (giant cell formation), passage number 2 (HIV-1(IIIB); 20 μM): 100%
percentage of cytopathic effect (giant cell formation), passage number 3 (HIV-1(IIIB); 20 μM): 3%
percentage of cytopathic effect (giant cell formation), passage number 4 (HIV-1(IIIB); 20 μM): 19%
percentage of cytopathic effect (giant cell formation), passage number 5 (HIV-1(IIIB); 20 μM): 12%
percentage of cytopathic effect (giant cell formation), passage number 6 (HIV-1(IIIB); 20 μM): 0%
percentage of cytopathic effect (giant cell formation), passage number 7 (HIV-1(IIIB); 20 μM): 0%
percentage of cytopathic effect (giant cell formation), passage number 1 (HIV-1(IIIB); 50 μM): 100%
percentage of cytopathic effect (giant cell formation), passage number 2 (HIV-1(IIIB); 50 μM): 100%
percentage of cytopathic effect (giant cell formation), passage number 3 (HIV-1(IIIB); 50 μM): 0%
percentage of cytopathic effect (giant cell formation), passage number 4 (HIV-1(IIIB); 50 μM): 0%
percentage of cytopathic effect (giant cell formation), passage number 5 (HIV-1(IIIB); 50 μM): 0%
percentage of cytopathic effect (giant cell formation), passage number 6 (HIV-1(IIIB); 50 μM): 0%
percentage of cytopathic effect (giant cell formation), passage number 7 (HIV-1(IIIB); 50 μM): 0%
antiviral activity (inhibition of HIV replication) in words (HIV-1(IIIB)): effective at inhibiting the replication of RNA viruses
antiviral activity (inhibition of HIV replication) in words (HIV-1(IIIB); listed as rK): active in reducing viral titer

O=c1nc(NO)ccn1[C@@H]1O[C@H](CO)[C@@H](O)[C@H]1O [JA29, N^4-hydroxycytidine, reference compound]
IC50 ([1]; T-lymphocyte): 16 ± 1 µM
percentage of cytopathic effect (giant cell formation), passage number 1 (HIV-1(IIIB); 0.8 μM): 100%
percentage of cytopathic effect (giant cell formation), passage number 2 (HIV-1(IIIB); 0.8 μM): 100%
percentage of cytopathic effect (giant cell formation), passage number 3 (HIV-1(IIIB); 0.8 μM): 12%
percentage of cytopathic effect (giant cell formation), passage number 4 (HIV-1(IIIB); 0.8 μM): 100%
percentage of cytopathic effect (giant cell formation), passage number 5 (HIV-1(IIIB); 0.8 μM): 100%
percentage of cytopathic effect (giant cell formation), passage number 6 (HIV-1(IIIB); 0.8 μM): 100%
percentage of cytopathic effect (giant cell formation), passage number 7 (HIV-1(IIIB); 0.8 μM): 100%
percentage of cytopathic effect (giant cell formation), passage number 1 (HIV-1(IIIB); 2 μM): 100%
percentage of cytopathic effect (giant cell formation), passage number 2 (HIV-1(IIIB); 2 μM): 100%
percentage of cytopathic effect (giant cell formation), passage number 3 (HIV-1(IIIB); 2 μM): 25%
percentage of cytopathic effect (giant cell formation), passage number 4 (HIV-1(IIIB); 2 μM): 100%
percentage of cytopathic effect (giant cell formation), passage number 5 (HIV-1(IIIB); 2 μM): 100%
percentage of cytopathic effect (giant cell formation), passage number 6 (HIV-1(IIIB); 2 μM): 100%
percentage of cytopathic effect (giant cell formation), passage number 7 (HIV-1(IIIB); 2 μM): 100%
antiviral activity (inhibition of HIV replication) in words (HIV-1(IIIB)): does not demonstrate any antiviral activity

CONc1ncnc2c1ncn2[C@@H]1O[C@H](CO)[C@@H](O)[C@H]1O [JA26, N^6-methoxyadenosine]
IC50 ([1]; T-lymphocyte): 44 ± 2 µM
percentage of cytopathic effect (giant cell formation), passage number 1 (HIV-1(IIIB); 4 μM): 100%
percentage of cytopathic effect (giant cell formation), passage number 2 (HIV-1(IIIB); 4 μM): 100%
percentage of cytopathic effect (giant cell formation), passage number 3 (HIV-1(IIIB); 4 μM): 25%
percentage of cytopathic effect (giant cell formation), passage number 4 (HIV-1(IIIB); 4 μM): 100%
percentage of cytopathic effect (giant cell formation), passage number 5 (HIV-1(IIIB); 4 μM): 100%
percentage of cytopathic effect (giant cell formation), passage number 6 (HIV-1(IIIB); 4 μM): 12%
percentage of cytopathic effect (giant cell formation), passage number 7 (HIV-1(IIIB); 4 μM): 3%
percentage of cytopathic effect (giant cell formation), passage number 1 (HIV-1(IIIB); 10 μM): 100%
percentage of cytopathic effect (giant cell formation), passage number 2 (HIV-1(IIIB); 10 μM): 100%
percentage of cytopathic effect (giant cell formation), passage number 3 (HIV-1(IIIB); 10 μM): 25%
percentage of cytopathic effect (giant cell formation), passage number 4 (HIV-1(IIIB); 10 μM): 100%
percentage of cytopathic effect (giant cell formation), passage number 5 (HIV-1(IIIB); 10 μM): 100%
percentage of cytopathic effect (giant cell formation), passage number 6 (HIV-1(IIIB); 10 μM): 12%
percentage of cytopathic effect (giant cell formation), passage number 7 (HIV-1(IIIB); 10 μM): 3%

OC[C@H]1O[C@@H](n2cnc3c(NO)ncnc32)[C@H](O)[C@@H]1O [JA28, N^6hydroxyadenosine]
IC50 ([1]; T-lymphocyte): 156 ± 15 µM
percentage of cytopathic effect (giant cell formation), passage number 1 (HIV-1(IIIB); 20 μM): 100%
percentage of cytopathic effect (giant cell formation), passage number 2 (HIV-1(IIIB); 20 μM): 100%
percentage of cytopathic effect (giant cell formation), passage number 3 (HIV-1(IIIB); 20 μM): 19%
percentage of cytopathic effect (giant cell formation), passage number 4 (HIV-1(IIIB); 20 μM): 100%
percentage of cytopathic effect (giant cell formation), passage number 5 (HIV-1(IIIB); 20 μM): 100%
percentage of cytopathic effect (giant cell formation), passage number 6 (HIV-1(IIIB); 20 μM): 100%
percentage of cytopathic effect (giant cell formation), passage number 7 (HIV-1(IIIB); 20 μM): 100%
percentage of cytopathic effect (giant cell formation), passage number 1 (HIV-1(IIIB); 40 μM): 100%
percentage of cytopathic effect (giant cell formation), passage number 2 (HIV-1(IIIB); 40 μM): 100%
percentage of cytopathic effect (giant cell formation), passage number 3 (HIV-1(IIIB); 40 μM): 50%
percentage of cytopathic effect (giant cell formation), passage number 4 (HIV-1(IIIB); 40 μM): 100%
percentage of cytopathic effect (giant cell formation), passage number 5 (HIV-1(IIIB); 40 μM): 100%
percentage of cytopathic effect (giant cell formation), passage number 6 (HIV-1(IIIB); 40 μM): 75%
percentage of cytopathic effect (giant cell formation), passage number 7 (HIV-1(IIIB); 40 μM): 6%

O=C1NC2=NOCCC2=CN1[C@@H]1O[C@H](CO)[C@@H](O)[C@H]1O [JA22, 6-(β-D-ribofuranosyl)-3,4-dihydro-8H-pyrimido[4,5-c][1,2] oxazin-7-one]
IC50 ([1]; T-lymphocyte): 698 ± 11 µM
percentage of cytopathic effect (giant cell formation), passage number 1 (HIV-1(IIIB); 400 μM): 100%
percentage of cytopathic effect (giant cell formation), passage number 2 (HIV-1(IIIB); 400 μM): 100%
percentage of cytopathic effect (giant cell formation), passage number 3 (HIV-1(IIIB); 400 μM): 100%
percentage of cytopathic effect (giant cell formation), passage number 4 (HIV-1(IIIB); 400 μM): 100%
percentage of cytopathic effect (giant cell formation), passage number 5 (HIV-1(IIIB); 400 μM): 100%
percentage of cytopathic effect (giant cell formation), passage number 6 (HIV-1(IIIB); 400 μM): 100%
percentage of cytopathic effect (giant cell formation), passage number 7 (HIV-1(IIIB); 400 μM): 100%

CN(N)c1ncnc2c1ncn2[C@@H]1O[C@H](CO)[C@@H](O)[C@H]1O [JA27, N^6-amino-N^6-methyladenosine]
IC50 ([1]; T-lymphocyte): 17 ± 2 µM
percentage of cytopathic effect (giant cell formation), passage number 1 (HIV-1(IIIB); 4 μM): 100%
percentage of cytopathic effect (giant cell formation), passage number 2 (HIV-1(IIIB); 4 μM): 100%
percentage of cytopathic effect (giant cell formation), passage number 3 (HIV-1(IIIB); 4 μM): 6%
percentage of cytopathic effect (giant cell formation), passage number 4 (HIV-1(IIIB); 4 μM): 25%
percentage of cytopathic effect (giant cell formation), passage number 5 (HIV-1(IIIB); 4 μM): 25%
percentage of cytopathic effect (giant cell formation), passage number 6 (HIV-1(IIIB); 4 μM): 0%
percentage of cytopathic effect (giant cell formation), passage number 7 (HIV-1(IIIB); 4 μM): 0%
antiviral activity (inhibition of HIV replication) in words (HIV-1(IIIB)): moderately effective
